Here are results for 12 compounds from patent US20120121540A1 (priority 2007, published 2012).

SMILES strings stand for the structures.

The nature of the assay: HCV replicon assay (luciferase reporter, ET cell line). Conditions: Hepatitis C virus, HCV replicon luciferase activity in ET cells. In kind it is cell-based. Summed up:
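EC50 and, via WST-1 cytotoxicity, TC50 were fitted with a Hill-coefficient equation to % inhibition across 10 two-fold dilutions. Compounds at 0.1 nM-[…] with 0.5% DMSO were applied 24 h post-seeding to replicon-bearing ET cells (luc-ubi-neo/NS3-5B, adaptive mutations). Firefly luciferase signal was measured after 48-72 h.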
For orientation: A replicon is a self-replicating genome or part of one, used to study replication in cells.
As a reminder, the inhibition is how much of the control response was suppressed. Read a low inhibition as a response near the control. Take `O=C(c1nc2c(C(F)(F)F)cc(-c3cn[nH]c3)cn2c1Cl)N1CC[C@@H](c2ccccc2)C1` [Compound 465, [3-Chloro-6-(1H-pyrazol-4-yl)-8-trifluoromethyl-imidazo[1,2-a]pyridin-2-yl]-(3-(S)-phenyl-pyrrolidin-1-yl)-methanone]: the inhibition at 10 µM was determined as 97.9%. On to `O=C(c1nc2c(C(F)(F)F)cc(-c3cn[nH]c3)cn2c1Cl)N1CC[C@H](c2ccccc2)C1` [Compound 466, [3-Chloro-6-(1H-pyrazol-4-yl)-8-trifluoromethyl-imidazo[1,2-a]pyridin-2-yl]-(3-(R)-phenyl-pyrrolidin-1-yl)-methanone], for which at 10 µM the inhibition was 90.4%. Then `O=C(c1nc2c(C(F)(F)F)cc(-c3ccoc3)cn2c1Cl)N1CCC(c2ccccn2)C1` (stereo not drawn) [Compound 468, (3-Chloro-6-furan-3-yl-8-trifluoromethyl-imidazo[1,2-a]pyridin-2-yl)-(3-pyridin-2-yl-pyrrolidin-1-yl)-methanone], with 93.9%; and `O=C(c1nc2c(C(F)(F)F)cc(-c3ccoc3)cn2c1Cl)N1N=C(c2ccoc2)CC1c1cc(Br)ccc1O` (stereo not drawn) [Compound 472, [5-(5-Bromo-2-hydroxy-phenyl)-3-furan-3-y-4,5-dihydro-pyrazol-1-yl]-(3-chloro-6-furan-3-yl-8-trifluoromethyl-imidazo[1,2-a]pyridin-2-yl)-methanone], with 86.6%; and `Fc1cccc(C2CCN(Cc3cn4cc(-c5ccoc5)cc(C(F)(F)F)c4n3)C2)c1` (stereo not drawn) [Compound 474, 2-[3-(3-Fluoro-phenyl)-pyrroidin-1-ylmethyl]-6-furan-3-yl-8-trifluoromethyl-imidazo[1,2-a]pyridine], with 0.7%. For `Cc1noc(C2CCN(C(=O)c3nc4c(C(F)(F)F)cc(-c5ccoc5)cn4c3Cl)C2)n1` (stereo not drawn) [Compound 475, (3-Chloro-6-furan-3-yl-8-trifluoromethyl-imidaz[1,2-a]pyridin-2-yl)-[3-(3-methyl-[1,2,4]oxadiazol-5-yl)-pyrrolidin-1-yl]-methanone] the value was 93%.

`Cc1noc(C2CCN(C(=O)c3nc4c(C(F)(F)F)cc(-c5cn[nH]c5)cn4c3Cl)C2)n1` (stereo not drawn) [Compound 476, [3-Chloro-6-(1H-pyrazol-4-yl)-8-trifluoromethyl-imidazo[1,2-a]pyridin-2-yl]-[3-(3-methyl-[1,2,4]oxadiazol-5-yl)-pyrrolidin-1-yl]-methanone] returned an inhibition at 10 µM of 72%. For `O=C(c1nc2c(C(F)(F)F)cc(-c3ccoc3)cn2c1Cl)N1CCC(c2ccccc2)=N1` [Compound 477, (3-Chloro-6-furan-3-yl-8-trifluoromethyl-imidazo[1,2-a]pyridin-2-yl)-(3-phenyl-4,5-dihydro-pyrazol-1-yl)-methanone] the value was 97.6%. Then `CC(C)(C)OC(=O)N[C@@H]1CCN(C(=O)c2nc3c(C(F)(F)F)cc(-c4ccoc4)cn3c2Cl)C1` [Compound 478, [1-(3-Chloro-6-furan-3-yl-8-trifluoromethyl-imidazo[1,2-a]pyridine-2-carbonyl)-pyrrolidin-3-yl]-carbamic acid tert-butyl ester], with 4.9%; and `CS(=O)(=O)N[C@@H]1CCN(C(=O)c2nc3c(C(F)(F)F)cc(-c4ccoc4)cn3c2Cl)C1` [Compound 480, N-[1-(3-Chloro-6-furan-3-yl-8-trifluoromethyl-imidazo[1,2-a]pyridine-2-carbonyl)-pyrrolidin-3-yl]-methanesulfonamide], with 47.7%; and `O=C1OC(c2ccccc2)CN1Cc1cn2cc(-c3ccoc3)cc(C(F)(F)F)c2n1` (stereo not drawn) [Compound 483, 3-(6-Furan-3-yl-8-trifluoromethyl-imidazo[1,2-a]pyridin-2-ylmethyl)-5-phenyl-oxazolidin-2-one], with 99.9%. In turn, `O=C(NCc1cccs1)c1nc2c(C(F)(F)F)cc(-c3cn[nH]c3)cn2c1-c1cn[nH]c1` [Compound 485, 3,6-Bis-(1H-pyrazol-4-yl)-8-trifluoromethyl-imidazo[1,2-a]pyridine-2-carboxylic acid (thiophen-2-ylmethyl)-amide] returned an inhibition at 10 µM of 58.9%.
